Measured values taken from patent US11793982B2, “Drug delivery devices and methods of fabrication and use therefor” (Purdue Research Foundation, priority 2020, dated 2023).

Key:
B16F10 melanoma cells = assay: Murine melanoma model, inhibition of post-surgical residual melanoma; format: in vivo, C57BL/6 mice
[1] = system: B16F10 murine melanoma cells; settings: cited from earlier work
mice = settings: cited from earlier work
[2] = system: epidermis and subcutaneous muscle on the backside of mice; assay: In vivo tissue compatibility, real-time bioluminescence (luminol) imaging of acute inflammation; settings: five hours post-injection

Row | Compound | mice with significant growth of the tumors (B16F10 melanoma cells; intratumoral syringe injection, single dose 50 μl, n=5, ten days post-inoculation) | local skin lesions (B16F10 melanoma cells; syringe injection) | half maximal inhibitory concentration (IC50) [1] | lethal dose (LD50) (mice) | acute inflammation at the implemented sites [2]
1 | COc1cccc2c1C(=O)c1c(O)c3c(c(O)c1C2=O)C[C@@](O)(C(=O)CO)C[C@@H]3O[C@H]1C[C@H](N)[C@H](O)[C@H](C)O1 [DOX, doxorubicin] | four out of five mice | local skin lesions were observed | about 0.3 μg/ml | about 192 μg | –
2 | CCCCCCCCCCCCCC(=O)O[C@@H]1[C@@H](C)[C@@]2(O)[C@@H](C=C(CO)C[C@]3(O)C(=O)C(C)=C[C@@H]23)[C@@H]2C(C)(C)[C@]12OC(C)=O [PMA, phorbol 12-myristate 13-acetate] | – | – | – | – | acute inflammation appeared
